# According to article PMC10375191, “Transformable Neuropeptide Prodrug with Tumor Microenvironment Responsiveness for Tumor Growth and Metastasis Inhibition of Triple‐Negative Breast Cancer” (Advanced Science, 2023):
# Starred links: 1 amine or outer side, 2 acyl side, 3 side chain; linkers in the order of their positions; H or OH if unused. Residues, ends and D or L forms follow the SMILES beside them. *: point of attachment. Doxorubicin(3'-N) = COc1cccc2c1C(=O)c1c(O)c3c(c(O)c1C2=O)C[C@@](O)(C(=O)CO)C[C@@H]3O[C@H]1C[C@H](N*)[C@H](O)[C@H](C)O1; Suc = O=C(CCC(=O)[*:2])[*:1]
# Assays:
# MDA‐MB‐231 cells [1] = experiment: Flow cytometry: cellular uptake and cellular MMPs-responsive drug release; type: cell-based, human
# Experimental: MDA‐MB‐231 cells were plated in 6‐well plates (2 × 10^5 cells per well) for 24 h. […] The mean fluorescence intensity (MFI) of 1 × 10^4 cells was detected by flow cytometry (FACSCalibur, BD, USA). Besides, 5 mM ethylenediaminetetraacetic acid (EDTA) purchased from Sigma was used as a model inhibitor to inhibit MMPs activity.
# [2] = test system: MDA‐MB‐231 tumor‐bearing BALB/c nude mice; experiment: Biodistribution by ex vivo fluorescence imaging; type: in vivo, mouse; conditions: single i.v. injection, ex vivo fluorescence 2-12 h
# Experimental: At 2, 4, 6, 8, 10, and 12 h post‐injection, the major organs and tumor were taken out and fluorescence signals were captured by IVIS.
# [3] = Pharmacokinetics in plasma; type: in vivo, mouse; conditions: ICR female mice, 10 mg kg^−1 DOX content i.v.
# Experimental: The drug contents were quantified by HPLC (1260 Infinity II, Agilent, USA) as described in the methods of characterization in Supporting Information and the pharmacokinetic parameters were analyzed using the Phoenix WinNonlin 8.3.5 software.
# healthy ICR mice = experiment: Maximum tolerated dose / acute toxicity study
# Excerpt: Animal survival of each group (n = 10, 5 female and 5 male) was continuously recorded for 14 days. Eventually, the evaluation and calculation of the median lethal dose (LD50) were completed with these collected data using the Bliss rule.
# MDA‐MB‐231 cells [4] = experiment: Transwell invasion assay (Matrigel); type: cell-based, human; conditions: MDA-MB-231, Matrigel transwell, 1 µg mL^−1 in lower chamber, 24 h, versus PBS group, n = 3
# Experimental: 1 × 10^6 MDA‐MB‐231 cells were suspended on the top chambers of the transwell with Matrigel. Cells were cultured in DMEM without FBS overnight. […] After incubation for 24 h, the cells on the upper wells were cautiously erased with a cotton swab. Cells on the lower surface were fixed with 4% PFA and stained with crystal violet. After multiple washing with PBS, the cells that passed through the membrane were recorded with a microscope (DFC 450C, Leica, Germany).
# [5] = test system: MDA‐MB‐231 metastasis model; experiment: Anti-metastasis evaluation, MDA-MB-231 metastasis model; type: in vivo, mouse; conditions: MDA-MB-231-luc i.v. model
# Excerpt: All the animal experimental procedures were recognized and approved by the Regional Ethics Committee for Animal Experiments at Ningbo University, China (Permit NO. SYXK (Zhe) 2019‐0005). The triple‐negative breast cancer (TNBC) xenograft tumors were established on female BALB/c nude mice (≈15 g) by subcutaneous injection of MDA‐MB‐231 cells (5 × 10^6 cells in each mouse). TNBC metastasis models were constructed by injecting MDA‐MB‐231‐luc cells (1 × 10^5 cells in each mouse) through the tail vein to female BALB/c nude mice. The day that MDA‐MB‐231‐luc was injected was set as D0. In vivo imaging system (IVIS) (Lumina XRMS Ш, PerkinElmer, USA) was utilized to identify the tumor metastasis at D12.
# For the TNBC metastasis model, two kinds of treatments were developed. […] After seven times of injections, continued observation of the mice was carried out. […] In vivo imaging system (IVIS Lumina XRMS Ш, PerkinElmer, USA) was utilized again to estimate the tumor metastasis at D26. Meanwhile, the mice were sacrificed and the main organs (heart, livers, spleen, lung, and kidney) were separated for histological analysis.
# MDA‐MB‐231 cells [6] = experiment: CCK-8 cell viability assay, MDA-MB-231; type: cell-based, human; conditions: MDA-MB-231, 36 and 48 h versus 24 h
# Experimental: MDA‐MB‐231 cells were incubated in 96‐well plates for 24 h (1 × 10^4 cells per well). […] At the appointed time, 10 µL CCK‐8 solution was dropped into each well and further co‐incubated with treated cells for 2 h. The absorbance values at 450 nm were measured by an automated plate reader (iMark (168‐1130), Biorad, USA). The IC50 values were obtained from Microsoft Excel's FORECAST formula.
# [7] = MDA-MB-231, 40 µg mL^−1, 1 h 37 °C, endocytosis inhibitors, flow cytometry MFI
smiles,measurement,setting,value
CC[C@H](C)[C@H](NC(=O)[C@@H]1CCCN1C(=O)[C@H](CC(N)=O)NC(=O)[C@H](CC(N)=O)NC(=O)[C@H](Cc1ccc(O)cc1)NC(=O)[C@H](Cc1c[nH]cn1)NC(=O)[C@H](CCCNC(=N)N)NC(=O)CNC(=O)[C@H](CCCNC(=N)N)NC(=O)[C@@H](NC(=O)CNC(=O)[C@H](CC(C)C)NC(=O)[C@@H]1CCCN1C(=O)CCC(=O)N[C@H]1C[C@H](O[C@H]2C[C@](O)(C(=O)CO)Cc3c(O)c4c(c(O)c32)C(=O)c2c(OC)cccc2C4=O)O[C@@H](C)[C@H]1O)C(C)C)C(=O)N[C@@H](Cc1c[nH]c2ccccc12)C(=O)N[C@@H](CCCNC(=N)N)C(=O)N[C@@H](CCC(N)=O)C(=O)N[C@@H](CCCNC(=N)N)C(=O)N[C@@H](Cc1ccc(O)cc1)C(N)=O [DOX‐P18] ({Doxorubicin(3'-N)-Suc}-PLGVRGRHYNNPIWRQRY-NH2),Cellular uptake at 4 °C (MFI),"MDA‐MB‐231 cells [1]; MDA-MB-231, 40 µg mL^−1 (by DOX content), DMEM 10% FBS, 1 h, 4 °C, flow cytometry, n = 3",strongly suppressed
same,Share of uptake by Y1R-mediated endocytosis,"MDA‐MB‐231 cells [1]; MDA-MB-231, 40 µg mL^−1, 1 h 37 °C, Y1R antagonist BIBP3304 20 µM, flow cytometry MFI",20%
same,Share of uptake by caveolin-mediated endocytosis,MDA‐MB‐231 cells [1]; [7],14%
same,Share of uptake by micropinocytosis,MDA‐MB‐231 cells [1]; [7],27%
same,Cell fluorescence intensity relative to EDTA-treated group (cellular drug release),"MDA‐MB‐231 cells [1]; MDA-MB-231, 48 h, without vs with 5 mM EDTA (MMPs inhibited), flow cytometry, n = 3",almost three times higher
same,Time of highest content in tissues,[2],6 h
same,Plasma clearance (CL) relative to DOX,[3],1/4
same,Total plasma concentration (AUC) relative to DOX,[3],four times higher
same,Histological analysis of major organs,"healthy ICR mice; 14 days after single dose, 40 mg kg^−1 DOX (or DOX equivalent)",no significant differences in major organs
same,Blood routine indexes,"healthy ICR mice; 14 days after single injection, n = 3, DOX: WBC, PLT, PCT at 10 mg kg^−1, DOX-P18: all indexes, different doses",not significantly different
same,Improvement of biosafety (LD50 versus DOX),healthy ICR mice; LD50 in DOX equivalents versus free DOX,67.8%
same,Single-dose median lethal dose (LD50),"healthy ICR mice; single intravenous dose, 14 days, n = 10 per group, Bliss rule",221.5 mg/kg
same,Inhibition on cell invasion,MDA‐MB‐231 cells [4],50%
same,"Lung metastasis, prevention schedule (histology D26)",[5]; 25 mg kg^−1 DOX-P18 (5 mg kg^−1 DOX) seven times every 2 days from D0,limited number
same,"Lung and bone metastasis, treatment schedule (histology D26)",[5]; 25 mg kg^−1 DOX-P18 (5 mg kg^−1 DOX) seven times every 2 days from D14,significant metastasis inhibition
same,IC50 with extended incubation time,MDA‐MB‐231 cells [6],further reduced
